Reference: PMC6273394, “Discovery of a New Class of Sortase A Transpeptidase Inhibitors to Tackle Gram-Positive Pathogens: 2-(2-Phenylhydrazinylidene)alkanoic Acids and Related Derivatives” (Molecules, 2016)
Read-outs that look alike come from different tables or passages of the source.

Assays:
[1] = biological target: S. aureus SrtA (Staphylococcus aureus, UniProt Q2FV99); test: biochemical
[2] = system: S. aureus ATCC 25923; test: Interference with biofilm formation assay (safranin method); assay type: cell-based; conditions: 100 µM compound, 24 h at 37 °C; for inhibition at 100 µM: Staphylococcus aureus, ATCC25923, 24 h, read-out: Percentages of Inhibition of Biofilm Formation S. aureus 25923
Protocol: (§1) The reference strains S. aureus ATCC 29213, S. aureus ATCC 25923, S. aureus ATCC 6538 and S. epidermidis RP62A were used in the assays.
(§2) The staphylococcal strains were tested for their ability to form biofilms. Briefly, bacteria were grown in TSB containing 2% glucose overnight at 37 °C in a shaking bath and then diluted 1:200 to a suspension with optical density (OD) of about 0.040 at 570 nm. Polystyrene 24-well tissue culture plates were filled with 1 mL of diluted suspension and incubated for 24 h at 37 °C. The wells were then washed three times with 1 mL of sterile phosphate-buffered saline (PBS) and stained with 1 mL of safranin 0.1% v/v for 1 min. The excess stain was removed by placing the plates under running tap water. Plates were dried overnight in an inverted position at 37 °C. Safranin-stained adherent bacteria in each well were re-dissolved to homogeneity in 1 mL of 30% v/v glacial acetic acid, and the OD was read at 492 nm. Each assay was performed in triplicate and repeated at least twice.
(§3) The procedure described above was used to evaluate the activity of phenyl-hydrazinylidene-derivatives in the prevention of biofilm formation. Polystyrene 24-well tissue culture plates were filled with 1 mL of diluted bacterial suspension, obtained and diluted as previously described, and a concentration of 100 µM of each compound was directly added to the bacterial suspension at time zero and incubated at 37 °C for 24 h. The wells were then washed and stained with safranin as per the biofilm forming assay. By comparing the average optical density (O.D.) of the growth control wells with the sample wells, the following formula was used to calculate the percentages of inhibition for each concentration of the sample: (2) Inhibition (%)=OD growth control−OD sample/OD growth control×100
(§4) Each assay was performed in triplicate and assays were repeated at least twice.

[3] = system: S. epidermidis RP62A; test: as above; assay type: cell-based; conditions: 100 µM compound, 24 h at 37 °C; for inhibition at 100 µM: Staphylococcus epidermidis, RP62A, 24 h, read-out: Percentages of Inhibition of Biofilm Formation S. epidermidis RP62A
Protocol: as §1, §2, §3, §4

[4] = system: S. aureus ATCC 29213; test: as above; assay type: cell-based; conditions: 100 µM compound, 24 h at 37 °C; for inhibition at 100 µM: Staphylococcus aureus, ATCC29213, 24 h, read-out: Percentages of Inhibition of Biofilm Formation S. aureus 29213
Protocol: as §1, §2, §3, §4

[5] = system: S. aureus ATCC 6538; test: as above; assay type: cell-based; conditions: 100 µM compound, 24 h at 37 °C; for inhibition at 100 µM: Staphylococcus aureus, ATCC6538, 24 h, read-out: Percentages of Inhibition of Biofilm Formation S. aureus 6538
Protocol: as §1, §2, §3, §4

Sequence of S. aureus SrtA (Q2FV99 60-206): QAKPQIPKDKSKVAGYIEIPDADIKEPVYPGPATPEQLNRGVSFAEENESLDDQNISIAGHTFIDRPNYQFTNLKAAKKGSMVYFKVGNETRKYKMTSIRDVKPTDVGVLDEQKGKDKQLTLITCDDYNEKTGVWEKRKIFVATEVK

SMILES | melting point | IC50 [1] | inhibition at 100 µM [2] | inhibition at 100 µM [3] | inhibition at 100 µM [4] | inhibition at 100 µM [5] | other results
CCOC(=O)/C(=N/Nc1ccccc1)C(C)=O [Compound 1a, Ethyl (2E)-3-Oxo-2-(2-phenylhydrazinylidene)butanoate] | 78 to 80 °C | 192 µM | – | – | – | – | –
CCOC(=O)/C(=N\Nc1ccc(Cl)c(Cl)c1)C(=O)c1ccccc1 | 96 to 98 °C | – | – | – | – | – | –
CCOC(=O)/C(=N\Nc1ccccc1)C(=O)c1ccccc1 [Compound 1g, Ethyl (2Z)-3-Oxo-3-phenyl-2-(2-phenylhydrazinylidene)propanoate] | – | – | – | – | – | – | IC50 ([1]; read-out: IC50 (activity as sortase A inhibitors), 10 µM S. aureus sortase A, preincubated 1 h at 37 °C, 50 µM dabcyl-QALPETGEE-edans substrate): > 500 µM
CC(=O)/C(=N/Nc1cccc(Cl)c1)C(=O)O [Compound 5c, (2Z)-3-Oxo-2-(2-(3-chlorophenyl)hydrazinylidene)butanoic acid] | – | 87 µM | 41.1 ± 0.7% | 22.9 ± 1.3% | 69 ± 4.6% | 30.3 ± 0.4% | –
CC(=O)/C(=N/Nc1ccc([N+](=O)[O-])cc1)C(=O)O [Compound 5d, (2Z)-3-Oxo-2-(2-(4-nitrophenyl)hydrazinylidene)butanoic acid] | – | 57 µM | 45.3 ± 1.7% | 48.6 ± 1.6% | 73.7 ± 0.8% | 53.6 ± 1.8% | –
CCOC(=O)/C(=N/Nc1cc(OC)c(OC)c(OC)c1)C(C)=O [Compound 1e, Ethyl (2E)-3-Oxo-2-(2-(3,4,5-trimethoxyphenyl)hydrazinylidene)butanoate] | 78 to 80 °C | 110 µM | – | – | – | – | –
O=C(O)/C(=N\Nc1ccccc1)C(=O)c1ccccc1 [Compound 5g, (2Z)-3-Oxo-3-phenyl-2-(2-phenylhydrazinylidene)propanoic acid] | 136 to 138 °C | 98 µM | 36.8 ± 2.1% | 23.7 ± 0.7% | 36.9 ± 1.2% | 41.9 ± 1.7% | –
CC(=O)/C(=N/Nc1ccc(Cl)c(Cl)c1)C(=O)O [Compound 5b, (2Z)-3-Oxo-2-(2-(3,4-dichlorophenyl)hydrazinylidene)butanoic acid] | – | 50 µM | 39.2 ± 1.4% | 29.1 ± 1.4% | 71.3 ± 6.4% | 22 ± 0.9% | –
CC(=O)/C(C#N)=N/Nc1ccccc1 [Compound 6a, (2E)-3-Oxo-2-(2-phenylhydrazinylidene)butanenitrile] | – | 80 µM | 45.1 ± 2.9% | 34.8 ± 1.8% | 46.2 ± 2.3% | 51 ± 0.9% | –
CC(=O)/C(=N/Nc1ccccc1)C(N)=O [Compound 7a, (2Z)-3-Oxo-2-(2-phenylhydrazinylidene)butanamide] | 134 to 136 °C | 120 µM | 42.1 ± 1.8% | 45.9 ± 2.1% | 48.2 ± 2.9% | 42.8 ± 1.1% | –
CC(=O)/C(=N/Nc1ccc(C)cc1)C(=O)O [Compound 5f, (2Z)-3-Oxo-2-(2-(4-methylphenyl)hydrazinylidene)butanoic acid] | – | 100 µM | 33.8 ± 2.7% | 24.4 ± 0.9% | 40.8 ± 2.1% | 40.3 ± 1.9% | –
CCOC(=O)/C(=N/Nc1ccc(C)cc1)C(C)=O [Compound 1f, Ethyl (2E)-3-Oxo-2-(2-(4-methylphenyl)hydrazinylidene)butanoate] | – | > 500 µM | – | – | – | – | –
C=CS(=O)(=O)c1ccccc1 [PVS, Phenyl vinyl sulfone, reference compound] | – | – | – | – | – | – | IC50 ([1]; 10 µM S. aureus sortase A, preincubated 1 h at 37 °C, 50 µM dabcyl-QALPETGEE-edans substrate, read-out: IC50 (activity as sortase A inhibitors)): 736 µM
CCOC(=O)/C(=N/Nc1ccc(Cl)c(Cl)c1)C(C)=O [Compound 1b, Ethyl (2E)-3-Oxo-2-(2-(3,4-dichlorophenyl)hydrazinylidene)butanoate] | 100 to 102 °C | > 500 µM | – | – | – | – | –
CCOC(=O)/C(=N\Nc1ccc([N+](=O)[O-])cc1)C(C)=O [Compound 1d, Ethyl (2Z)-3-Oxo-2(2-(4-nitrophenyl)hydrazinylidene)butanoate] | 120 to 122 °C | 100 µM | – | – | – | – | –
CCOC(=O)/C(=N/Nc1cccc(Cl)c1)C(C)=O [Compound 1c, Ethyl (2E)-3-Oxo-2(2-(3-chlorophenyl)hydrazinylidene)butanoate] | 70 to 72 °C | > 500 µM | – | – | – | – | –
CN(C)CCC(=O)c1ccc(Cl)c(Cl)c1 [DPDAP, 1-(3,4-dichlorophenyl)-3-dimethylamino-1-propanone, reference compound] | – | 10 µM | – | – | – | – | –
O=C(O)/C(=N\Nc1ccc(Cl)c(Cl)c1)C(=O)c1ccccc1 [Compound 5h, (2Z)-3-Oxo-2-(2-(3,4-dichlorophenyl)hydrazinylidene)-3-phenylpropanoic acid] | 202 to 204 °C | 100 µM | 55.9 ± 2.6% | 45.4 ± 1.6% | 42.7 ± 3.7% | 70.1 ± 2.1% | –
CC(=O)/C(=N/Nc1ccccc1)C(=O)O [Compound 5a, (2Z)-3-Oxo-2-(2-phenylhydrazinylidene)butanoic acid] | – | 80 µM | ~60% | ~60% | ~60% | ~60% | Percentages of Inhibition of Biofilm Formation S. aureus 25923 ([2]; 100 µM): 68.3 ± 2.0%; Percentages of Inhibition of Biofilm Formation S. epidermidis RP62A ([3]; 100 µM): 61.5 ± 1.2%; Percentages of Inhibition of Biofilm Formation S. aureus 29213 ([4]; 100 µM): 62.3 ± 1.5%; Percentages of Inhibition of Biofilm Formation S. aureus 6538 ([5]; 100 µM): 60.1 ± 1.7%
COc1cc(N/N=C(/C(C)=O)C(=O)O)cc(OC)c1OC [Compound 5e, (2Z)-3-Oxo-2-(2-(3,4,5-trimethoxyphenyl)hydrazinylidene)butanoic acid] | 150 to 152 °C | 92 µM | 28.8 ± 2.9% | 27.1 ± 1.2% | 34.8 ± 1.3% | 48.2 ± 0.9% | –
COc1ccc2cc3[n+](cc2c1OC)CCc1cc2c(cc1-3)OCO2 [BC, Berberine chloride, reference compound] | – | 120 µM | – | – | – | – | –
